Experimental data published in US20050070554A1, “Substituted heterocyclic compounds and methods of use” (Amgen Inc., priority 2003, published 2005).

Molecular target: T1, LCK (Homo sapiens, UniProt P06239)
T1 construct: LCK KD GST (225-509); GST
Test: LCK-Homogeneous Time Resolved Fluorescent (HTRF) Kinase Assay
Format: biochemical
Settings: read-out: activity in the LCK-HTRF Kinase Assay
Outline: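 LCK phosphorylates biotinylated Gastrin peptide in the presence of ATP for 90 min in 50 mM HEPES pH 7.5, 50 mM NaCl, 20 mM MgCl, 5 mM MnCl, 2 mM DTT, 0.05% BSA. Reaction stopped with EDTA-containing detection reagent, then equilibrated 30 min before HTRF read.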

T1 sequence (P06239 225-509): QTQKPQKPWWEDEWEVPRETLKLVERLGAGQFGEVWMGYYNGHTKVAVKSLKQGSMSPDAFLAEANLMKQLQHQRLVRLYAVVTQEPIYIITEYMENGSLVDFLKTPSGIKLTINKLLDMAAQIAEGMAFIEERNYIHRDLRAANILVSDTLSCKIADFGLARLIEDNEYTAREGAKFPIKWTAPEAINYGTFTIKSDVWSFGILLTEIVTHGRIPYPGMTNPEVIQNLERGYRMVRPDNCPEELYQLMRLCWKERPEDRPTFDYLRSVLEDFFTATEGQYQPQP

| SMILES | IC50 [nM] |
| --- | --- |
| CN1CCN(c2ccc(Nc3ncc4c(=O)n(-c5ccc(F)cc5)c5nc6ccccc6n5c4n3)cc2)CC1 [No. 84, 6-(4-fluorophenyl)-2-((4-(4-methyl-1-piperazinyl)-phenyl)amino)pyrimido[5′,4′:5,6]pyrimido[1,2-a]-benzimidazol-5(6H)-one] | < 1000 |
| Cc1cccc(C)c1-n1c(=O)c2cnc(Nc3ccc(N4CCN(C)CC4)cc3)nc2n2ccnc12 [No. 87, 6-(2,6-dimethylphenyl)-2-((4-(4-methyl-1-piperazinyl)phenyl)amino)imidazo[1,2-a]-pyrimido[5,4-e]pyrimidin-5(6H)-one] | < 1000 |
| CN1CCN(c2ccc(Nc3ncc4c(=O)n(-c5c(F)cccc5F)c5nc6ccccc6n5c4n3)cc2)CC1 [No. 88, 6-(2,6-difluorophenyl)-2-((4-(4-methyl-1-piperazinyl)-phenyl)amino)pyrimido[5′,4′:5,6]pyrimido[1,2-a]-benzimidazol-5(6H)-one] | < 1000 |
| CN1CCN(c2ccc(Nc3ncc4c(=O)n(-c5c(F)c(F)c(F)c(F)c5F)c5nc6ccccc6n5c4n3)cc2)CC1 [No. 89, 2-((4-(4-methyl-1-piperazinyl)phenyl)amino)-6-(pentafluorophenyl)pyrimido[5′,4′:5,6]pyrimido[1,2-a]benzimidazol-5(6H)-one] | < 1000 |
